From PubChem BioAssay AID248 (DTP/NCI, 2004)
Where “and” joins values, the source holds several entries; their conditions need not be identical. Identical values can stand only once. Toxic doses and inconclusive results are not listed. No stated cut-off is given here; in the data, active means T/C of 150% or more; inactive means T/C below 125%.

System: L1210 leukemia ip in BDF1 mice, survival T/C
Test: NCI In Vivo Anticancer Drug Screen. Data for tumor model L1210 Leukemia (intraperitoneal) in B6D2F1 (BDF1) mice
Conditions: endpoint: mean survival time, higher = longer survival
In short: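 Mice bearing the transplanted tumor received compound or vehicle. Survival of the treated group was divided by that of the vehicle-treated control group to give the ratio.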

[1] = dose: 25.0 mg/kg/injection, schedule: Q01DX009 (ip), vehicle: saline with Tween-80
[2] = dose: 50.0 mg/kg/injection, schedule: Q01DX009 (ip), vehicle: saline with Tween-80
[3] = dose: 50.0 mg/kg/injection, schedule: Q01DX001 (ip), vehicle: saline
[4] = dose: 100.0 mg/kg/injection, schedule: Q01DX001 (ip), vehicle: saline
[5] = dose: 200.0 mg/kg/injection, schedule: Q01DX001 (ip), vehicle: saline
[6] = dose: 400.0 mg/kg/injection, schedule: Q01DX001 (ip), vehicle: saline
[7] = dose: 100.0 mg/kg/injection, schedule: Q01DX001 (ip), vehicle: Klucel (hydroxypropylcellulose) (HPC)
[8] = dose: 100.0 mg/kg/injection, schedule: Q04DX003 (ip), vehicle: Klucel (hydroxypropylcellulose) (HPC)
[9] = dose: 200.0 mg/kg/injection, schedule: Q04DX003 (ip), vehicle: Klucel (hydroxypropylcellulose) (HPC)
[10] = dose: 400.0 mg/kg/injection, schedule: Q04DX003 (ip), vehicle: Klucel (hydroxypropylcellulose) (HPC)

Measured: T/C

[Cu+2].[NH-]c1ccccc1C(=O)O.[NH-]c1ccccc1C(=O)O
inactive: dose: 12.5 mg/kg/injection, schedule: Q01DX009 (ip), vehicle: saline with Tween-80 101 % of control | dose: 12.5 mg/kg/injection, schedule: Q04DX003 (ip), vehicle: saline with Tween-80 97 % of control | [1] 101 % of control | dose: 25.0 mg/kg/injection, schedule: Q04DX003 (ip), vehicle: saline with Tween-80 97 % of control | [2] 88 % of control | dose: 50.0 mg/kg/injection, schedule: Q04DX003 (ip), vehicle: saline with Tween-80 90 % of control

Clc1ccc(CI)cc1
inactive: dose: 25.0 mg/kg/injection, schedule: Q04DX003 (ip), vehicle: alcohol 106 % of control | dose: 50.0 mg/kg/injection, schedule: Q04DX003 (ip), vehicle: alcohol 98 % of control | dose: 100.0 mg/kg/injection, schedule: Q04DX003 (ip), vehicle: alcohol 98 % of control

O=C(O)/C=C\c1ccccc1
inactive: dose: 100.0 mg/kg/injection, schedule: Q01DX009 (ip), vehicle: other 100 % of control | dose: 200.0 mg/kg/injection, schedule: Q01DX009 (ip), vehicle: other 95 % of control

O=C1C(O)CCN1Cc1ccccc1 (stereo not given)
inactive: [3] 108 % of control | [4] 104 % of control | [5] 104 % of control | [6] 102 % of control

CC1(C)N=C(N)N=C(N)N1c1cccc(OCCOc2cccc(N)c2)c1
inactive: dose: 5.0 mg/kg/injection, schedule: Q01DX001 (ip), vehicle: saline 91 % of control | dose: 10.0 mg/kg/injection, schedule: Q01DX001 (ip), vehicle: saline 92 % of control | dose: 20.0 mg/kg/injection, schedule: Q01DX001 (ip), vehicle: saline 94 % of control | dose: 40.0 mg/kg/injection, schedule: Q01DX001 (ip), vehicle: saline 89 % of control | [7] 106 % of control

CCCCCCCCCCCCCCCC(=O)CCCCCCCCCCCCCCC
inactive: dose: 100.0 mg/kg/injection, schedule: Q01DX001 (ip), vehicle: other 94 % of control | dose: 200.0 mg/kg/injection, schedule: Q01DX001 (ip), vehicle: other 100 % of control | dose: 400.0 mg/kg/injection, schedule: Q01DX001 (ip), vehicle: other 97 % of control

CCn1c(C)nc2cc(Cl)c([N+](=O)[O-])cc21
inactive: [4] 91 % of control | dose: 100.0 mg/kg/injection, schedule: Q04DX003 (ip), vehicle: acetone 93 % of control | [5] 110 % of control | dose: 200.0 mg/kg/injection, schedule: Q04DX003 (ip), vehicle: acetone 93 % of control | [6] 96 % of control | dose: 400.0 mg/kg/injection, schedule: Q04DX003 (ip), vehicle: acetone 96 % of control

COc1ccc(C(C)(C)C#N)cc1
inactive: [3] 102 % of control | [4] 100 % of control | [5] 100 % of control | [6] 97 % of control

Nc1ccc(C(=O)C(=O)c2ccc(N)cc2)cc1
inactive: dose: 75.0 mg/kg/injection, schedule: Q01DX001 (ip), vehicle: acetone 102 % of control | dose: 150.0 mg/kg/injection, schedule: Q01DX001 (ip), vehicle: acetone 94 % of control

O=C(/C=C/C=C/c1ccccc1)c1ccc(Cl)cc1
inactive: dose: 100.0 mg/kg/injection, schedule: Q01DX009 (ip), vehicle: saline with Tween-80 97 % of control | dose: 100.0 mg/kg/injection, schedule: Q04DX003 (ip), vehicle: saline with Tween-80 95 % of control | dose: 200.0 mg/kg/injection, schedule: Q01DX009 (ip), vehicle: saline with Tween-80 92 % of control | dose: 400.0 mg/kg/injection, schedule: Q01DX009 (ip), vehicle: saline with Tween-80 95 % of control | dose: 400.0 mg/kg/injection, schedule: Q04DX003 (ip), vehicle: saline with Tween-80 96 % of control

CC1C(=O)OC2CC[N+]3(CC(=O)c4ccc(Br)cc4)CC=C(COC(=O)C(C)(O)C1(C)O)C23 (stereo not given)
inactive: dose: 100.0 mg/kg/injection, schedule: Q04DX003 (ip), vehicle: saline 104 % of control | dose: 200.0 mg/kg/injection, schedule: Q04DX003 (ip), vehicle: saline 102 % of control | dose: 400.0 mg/kg/injection, schedule: Q04DX003 (ip), vehicle: saline 87 % of control

O=C(N=Nc1c(O)[nH]c2ccc(Br)cc12)c1ccco1
inactive: dose: 100.0 mg/kg/injection, schedule: Q04DX002 (ip), vehicle: Klucel (hydroxypropylcellulose) (HPC) 111 % of control | dose: 200.0 mg/kg/injection, schedule: Q04DX002 (ip), vehicle: Klucel (hydroxypropylcellulose) (HPC) 95 % of control | dose: 400.0 mg/kg/injection, schedule: Q04DX002 (ip), vehicle: Klucel (hydroxypropylcellulose) (HPC) 95 % of control

COc1ccc(Cc2ccc(OC)cc2)cc1
inactive: [3] 96 % of control | [4] 96 % of control | [5] 96 % of control | [6] 90 % of control

Cc1cc(C)c(-c2c(Br)c(OC(=O)c3ccc([N+](=O)[O-])cc3)c(-c3c(C)cc(C)c(Br)c3C)c(Br)c2OC(=O)c2ccc([N+](=O)[O-])cc2)c(C)c1Br
inactive: dose: 100.0 mg/kg/injection, schedule: Q01DX009 (ip), vehicle: Klucel (hydroxypropylcellulose) (HPC) 101 % of control | [8] 104 % of control | dose: 200.0 mg/kg/injection, schedule: Q01DX009 (ip), vehicle: Klucel (hydroxypropylcellulose) (HPC) 97 % of control | [9] 96 % of control | dose: 400.0 mg/kg/injection, schedule: Q01DX009 (ip), vehicle: Klucel (hydroxypropylcellulose) (HPC) 100 % of control | [10] 96 % of control

C1=Nc2ccccc2/C1=C/c1cccc2ccccc12
inactive: dose: 100.0 mg/kg/injection, schedule: Q04DX002 (ip), vehicle: saline with Tween-80 98 % of control | dose: 200.0 mg/kg/injection, schedule: Q04DX002 (ip), vehicle: saline with Tween-80 101 % of control

CC1=CC(C)(C)NC(=S)N1c1ccc(N=Nc2ccccc2)cc1
inactive: dose: 334.0 mg/kg/injection, schedule: Q01DX Z (ip), vehicle: methylcellulose (MC) 91 % of control | dose: 500.0 mg/kg/injection, schedule: Q01DX Z (ip), vehicle: methylcellulose (MC) 92 % of control

COC(=O)C1C(c2ccc(-c3ccccc3)cc2)N1C(C)C (stereo not given)
inactive: [8] 101 % of control | [9] 95 % of control | [10] 98 % of control

CC1(C)CC(=O)c2c(cc3oc(=O)ccc3c2O)O1
inactive: [8] 102 % of control | [9] 105 % of control | [10] 98 % of control

O=S1(=O)CC(c2ccccc2)=NN=C(c2ccccc2)C1
inactive: [4] 92 % of control | [5] 86 % of control | [6] 92 % of control

CC(SC(C)C(=O)NN=C1CCSCC1)C(=O)NN=C1CCSCC1 (stereo not given)
inactive: dose: 55.0 mg/kg/injection, schedule: Q01DX Z (ip), vehicle: methylcellulose (MC) 104 % of control | dose: 83.0 mg/kg/injection, schedule: Q01DX Z (ip), vehicle: methylcellulose (MC) 91 % of control | dose: 125.0 mg/kg/injection, schedule: Q01DX Z (ip), vehicle: methylcellulose (MC) 114 % of control

CCCNS(=O)(=O)c1cccc(C(N)=S)c1
inactive: [7] 101 % of control | dose: 200.0 mg/kg/injection, schedule: Q01DX001 (ip), vehicle: Klucel (hydroxypropylcellulose) (HPC) 100 % of control | dose: 400.0 mg/kg/injection, schedule: Q01DX001 (ip), vehicle: Klucel (hydroxypropylcellulose) (HPC) 103 % of control

CC(=O)OCC1OC(N2C(=O)/C(=C/c3ccc4c(c3)OCO4)SC2=S)C(OC(C)=O)C(OC(C)=O)C1OC(C)=O (stereo not given)
inactive: dose: 12.5 mg/kg/injection, schedule: Q01DX005 (ip), vehicle: other 102 % of control | dose: 25.0 mg/kg/injection, schedule: Q01DX005 (ip), vehicle: other 100 % of control | dose: 50.0 mg/kg/injection, schedule: Q01DX005 (ip), vehicle: other 96 % of control | dose: 100.0 mg/kg/injection, schedule: Q01DX005 (ip), vehicle: other 94 % of control | dose: 200.0 mg/kg/injection, schedule: Q01DX005 (ip), vehicle: other 94 % of control

O=[N+]([O-])c1c[nH]c2[nH]cnc(=S)c12
inactive: dose: 100.0 mg/kg/injection, schedule: Q01DX001 (ip), vehicle: carboxymethylcellulose (CMC) 102 % of control | dose: 200.0 mg/kg/injection, schedule: Q01DX001 (ip), vehicle: carboxymethylcellulose (CMC) 87 % of control

CCN(CC)C(=O)c1cccc(COc2ccc(N3C(N)=NC(N)=NC3(C)C)cc2Cl)c1
inactive: [1] 107 % of control | [2] 107 % of control

NCCc1cn(C2OC(CO)C(O)C(O)C2O)c2ccccc12 (stereo not given)
inactive: dose: 25.0 mg/kg/injection, schedule: Q01DX005 (ip), vehicle: saline 96 % of control and 106 % of control | dose: 50.0 mg/kg/injection, schedule: Q01DX005 (ip), vehicle: saline 96 % of control | dose: 100.0 mg/kg/injection, schedule: Q01DX005 (ip), vehicle: saline 109 % of control and 87 % of control

O=C1C(O)C23CC=CCC12CC=CC3 (stereo not given)
inactive: [4] 116 % of control | [5] 105 % of control | [6] 100 % of control
